pKi: −log10 of the molar value.
What follows are molecules tested against T1, Astrosclerin-3 (Astrosclera willeyana, UniProt A6YCJ1).
T1 sequence (A6YCJ1 whole entry): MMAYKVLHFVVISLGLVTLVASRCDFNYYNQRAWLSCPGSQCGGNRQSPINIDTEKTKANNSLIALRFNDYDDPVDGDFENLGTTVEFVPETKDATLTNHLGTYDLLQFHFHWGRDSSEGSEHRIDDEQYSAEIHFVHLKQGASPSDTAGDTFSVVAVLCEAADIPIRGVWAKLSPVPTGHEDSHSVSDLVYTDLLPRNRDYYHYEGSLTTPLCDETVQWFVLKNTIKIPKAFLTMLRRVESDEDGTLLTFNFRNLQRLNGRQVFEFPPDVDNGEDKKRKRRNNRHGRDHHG
Description: Inhibition of GST-tagged astrosclera willeyana Astrosclerin-3 expressed in Escherichia coli after 15 mins preincubation by stopped flow CO2 hydration assay
`NS(=O)(=O)c1ccc(CCNC(=O)c2ccc(S(N)(=O)=O)cc2)cc1` showed a pKi of 7.47. `Cc1ccc(S(N)(=O)=O)cc1` [P-TOLUENESULFONAMIDE] showed a pKi of 6.17. In the case of `NS(=O)(=O)c1ccc(CO)cc1`, the pKi was 5.37. Work on `Nc1c(F)cc(S(=O)(=O)Nc2nnc(S(N)(=O)=O)s2)cc1Cl` yielded a pKi of 8.55. `Cn1nc(S(N)(=O)=O)sc1=N` showed a pKi of 6.41. `Nc1nccc(Nc2ccc(S(N)(=O)=O)cc2)n1` gave a pKi of 7.27. `NS(=O)(=O)c1ccc(C(=O)O)cc1` [CARZENIDE] gave a pKi of 5.92. Molecule `NS(=O)(=O)c1ccc(S(=O)(=O)Nc2cccc3c(Cl)c[nH]c23)cc1` has a pKi of 6.37. In the case of `NS(=O)(=O)c1nnc(NS(=O)(=O)c2ccccc2)s1` [BENZOLAMIDE], the pKi was 7.49. Work on `Cc1ccc(-c2cc(C(F)(F)F)nn2-c2ccc(S(N)(=O)=O)cc2)cc1` [CELECOXIB] yielded a pKi of 6.14. In the case of `O=C1NS(=O)(=O)c2ccccc21` [SACCHARIN], the pKi was 6.12. Molecule `Nc1ccc(S(N)(=O)=O)cc1` [SULFANILAMIDE] has a pKi of 5.11. Molecule `NCc1ccc(S(N)(=O)=O)cc1` [MAFENIDE] has a pKi of 6.01. In the case of `Nc1ccc(S(=O)(=O)Nc2nnc(S(N)(=O)=O)s2)cc1`, the pKi was 8.41. Work on `CCN[C@H]1CN(CCCOC)S(=O)(=O)c2sc(S(N)(=O)=O)cc21` [BRINZOLAMIDE] yielded a pKi of 6.56. `Nc1ccc(S(N)(=O)=O)cc1Cl` gave a pKi of 6.05. Work on `Nc1ccc(S(N)(=O)=O)cc1F` yielded a pKi of 6.05. With `NS(=O)(=O)c1ccc(CCO)cc1` the pKi was 5.86. Work on `Nc1c(Br)cc(S(N)(=O)=O)cc1Br` yielded a pKi of 6.02. Work on `NNc1ccc(S(N)(=O)=O)cc1` yielded a pKi of 5.22. `NNc1ccccc1S(N)(=O)=O` was tested, and the pKi was 5.05. Molecule `Nc1ccc(S(=O)(=O)NCCc2ccc(S(N)(=O)=O)cc2)cc1` has a pKi of 7.80. `NCCc1ccc(S(N)(=O)=O)cc1` was tested, and the pKi was 6.15. For `CC1(C)O[C@@H]2[C@@H](CO[C@@]3(COS(N)(=O)=O)OC(C)(C)O[C@@H]23)O1` [TOPIRAMATE], the pKi was 7.42. With `Nc1c(I)cc(S(N)(=O)=O)cc1I` the pKi was 6.06.

From ChEMBL document CHEMBL1944613, “Cloning, characterization and sulfonamide inhibition studies of an α-carbonic anhydrase from the living fossil sponge Astrosclera willeyana” (Bioorg Med Chem, 2012)
